Measurements taken from ChEMBL document CHEMBL4265906, “Synthesis and biological evaluation of isoxazolyl-sulfonamides: A non-cytotoxic scaffold active against Trypanosoma cruzi, Leishmania amazonensis and Herpes Simplex Virus” (Bioorg Med Chem Lett, 2018).
The source made the active and inactive calls. The calls are words filed in the database; no cut-off is given here.

Tests used:
Trypanosoma cruzi [1] = assay: Trypanocidal activity against Trypanosoma cruzi Tulahuen trypomastigotes infected in human THP1 cells assessed as growth inhibition after 48 hrs by chlorophenolred-beta-d-galactopyranoside/Nonidet P-40 reagent-based assay; assay type: functional
Trypanosoma cruzi [2] = assay: Trypanocidal activity against Trypanosoma cruzi Tulahuen trypomastigotes infected in human THP1 cells assessed as growth inhibition at 50 uM after 48 hrs by chlorophenolred-beta-d-galactopyranoside/Nonidet P-40 reagent-based assay; assay type: functional; conditions: for inhibition of growth at 50 µM: THP-1, 48 h, read-out: GI
Human alphaherpesvirus 1 [3] = assay: Antiviral activity against […] HSV1 KOS infected in African green monkey Vero cells assessed as inhibition of viral replication after 48 hrs by naphthol blue-black staining-based assay; assay type: functional, organism-based
Human alphaherpesvirus 1 [4] = assay: Antiviral activity against […] HSV1 KOS infected in African green monkey Vero cells assessed as inhibition of viral replication at 100 uM after 48 hrs by naphthol blue-black staining-based assay; assay type: functional; conditions: for inhibition at 100 µM: Human alphaherpesvirus 1, KOS
Leishmania amazonensis [5] = assay: Leishmanicidal activity against Leishmania amazonensis MHOM/BR/77/LTB0016 amastigotes infected in human THP1 cells assessed as growth inhibition at 50 uM after 48 hrs by chlorophenolred-beta-d-galactopyranoside/Nonidet P-40 reagent-based assay; assay type: functional; conditions: for inhibition of growth at 50 µM: MHOM/BR/77/LTB0016, THP-1, 48 h, read-out: GI
[6] = Selectivity index, ratio of CC50 for African green monkey Vero cells to IC50 for HSV1 KOS; assay type: toxicity; conditions: read-out: Ratio CC50/IC50
[7] = Selectivity index, ratio of CC50 for human THP1 cells to G150 for Trypanosoma cruzi Tulahuen trypomastigotes; assay type: toxicity; conditions: THP-1 cells, read-out: Selectivity Index
Trypanosoma cruzi [8] = assay: Trypanocidal activity against Trypanosoma cruzi Tulahuen trypomastigotes infected in human THP1 cells at 20 uM after 48 hrs by chlorophenolred-beta-d-galactopyranoside/Nonidet P-40 reagent-based assay; assay type: functional; conditions: THP-1, 48 h, read-out: GI
[9] = Cytotoxicity against human THP1 cells assessed as reduction in cell viability by MTT assay; assay type: cell-based; conditions: THP-1 cells
[10] = Cytotoxicity against African green monkey Vero cells assessed as reduction in cell viability after 48 hrs by sulforhodamine B assay; assay type: cell-based; conditions: chlorocebus sabaeus
[11] = Cytotoxicity against human HCT8 cells assessed as reduction in cell viability after 48 hrs by sulforhodamine B assay; assay type: cell-based; conditions: HCT-8 cells
[12] = Cytotoxicity against human A549 cells assessed as reduction in cell viability after 48 hrs by sulforhodamine B assay; assay type: cell-based
Leishmania amazonensis [13] = assay: Leishmanicidal activity against Leishmania amazonensis MHOM/BR/77/LTB0016 amastigotes infected in human THP1 cells assessed as growth inhibition at 2 uM after 48 hrs by chlorophenolred-beta-d-galactopyranoside/Nonidet P-40 reagent-based assay; assay type: functional; conditions: MHOM/BR/77/LTB0016, THP-1, 48 h, read-out: GI
[14] = Human alphaherpesvirus 1, KOS, Vero, 48 h, read-out: IC50

| SMILES | GI50 (Trypanosoma cruzi [1]; THP-1, 48 h) [µM] | inhibition of growth at 50 µM (Trypanosoma cruzi [2]) [%] | IC50 (Human alphaherpesvirus 1 [3]; vero) | inhibition (Human alphaherpesvirus 1 [4]) | inhibition of growth at 50 µM (Leishmania amazonensis [5]) [%] | IC50 (Human alphaherpesvirus 1 [3]; [14]) [µM] | inhibition at 100 µM (Human alphaherpesvirus 1 [4]) [%] | further results |
| --- | --- | --- | --- | --- | --- | --- | --- | --- |
| COc1ccc(-c2cc(CNS(=O)(=O)c3ccc([N+](=O)[O-])cc3)on2)cc1OC | > 50 | 53.9 | Not Active | inactive | 10.2 |  |  |  |
| COc1ccc(-c2cc(CNS(=O)(=O)c3ccc(F)cc3)on2)cc1 | > 50 | 44.5 |  |  | 14 | 87.4 | 100 | selectivity ratio [6]: > 5.7 |
| COc1ccc(-c2cc(CNS(=O)(=O)c3ccc(C)cc3)on2)cc1OC | > 50 | 25.6 | Not Active | inactive | 4.1 |  |  |  |
| COc1ccc(-c2cc(CNS(=O)(=O)c3ccc([N+](=O)[O-])cc3)on2)cc1 | 14.3 | 85.8 |  |  | 48.7 | 137 | 60 | selectivity ratio [7]: > 34.8; selectivity ratio [6]: > 3.6 |
| COc1ccc(-c2cc(CNS(=O)(=O)c3ccc(Cl)cc3)on2)cc1 |  |  |  |  | 6.4 | > 100 | 32 | GI50 (Trypanosoma cruzi [1]): inactive; growth inhibition (GI) (Trypanosoma cruzi [2]): inactive |
| O=C(Cn1ccnc1[N+](=O)[O-])NCc1ccccc1 [BENZNIDAZOLE] | 10.2 |  |  |  |  |  |  | selectivity ratio [7]: > 49.1; inhibition of growth at 20 µM (Trypanosoma cruzi [8]): 96.6% |
| COc1ccc(-c2cc(CNS(=O)(=O)c3ccc(C)cc3)on2)cc1 |  |  |  |  | 2 | 95.9 | 65 | CC50 [9]: > 500 µM; CC50 at 48 h [10]: ≥ 331 µM; GI50 (Trypanosoma cruzi [1]): inactive; selectivity ratio [6]: > 3.4; CC50 at 48 h [11]: > 500 µM; growth inhibition (GI) (Trypanosoma cruzi [2]): inactive; CC50 at 48 h [12]: > 500 µM |
| Cc1ccc(S(=O)(=O)NCc2cc(-c3ccccc3)no2)cc1 | > 50 | 5.8 |  |  | 10.9 | > 100 | 25.3 |  |
| O=S(=O)(NCc1cc(-c2ccc3c(c2)OCO3)no1)c1ccc(Cl)cc1 | > 50 | 14.2 | Not Active | inactive | 30.7 |  |  |  |
| Nc1nc2c(ncn2COCCO)c(=O)[nH]1 [ACYCLOVIR] |  |  |  |  |  | 1.29 |  | selectivity ratio [6]: > 1500 |
| Cc1ccc(S(=O)(=O)NCc2cc(-c3ccc([N+](=O)[O-])cc3)no2)cc1 | > 50 | 9.8 | Not Active | inactive | 9.3 |  |  |  |
| C[C@@H]1[C@H](O)[C@@H](C)/C=C/C=C/C=C/C=C/C=C/C=C/C=C/[C@H](O[C@@H]2O[C@H](C)[C@@H](O)[C@H](N)[C@@H]2O)C[C@@H]2O[C@](O)(C[C@@H](O)C[C@@H](O)[C@H](O)CC[C@@H](O)C[C@@H](O)CC(=O)O[C@H]1C)C[C@H](O)[C@H]2C(=O)O [AMPHOTERICIN B] |  |  |  |  |  |  |  | inhibition of growth at 2 µM (Leishmania amazonensis [13]): 92.1% |
| O=[N+]([O-])c1ccc(-c2cc(CNS(=O)(=O)c3ccc(Cl)cc3)on2)cc1 |  |  | Not Active | inactive | 2 |  |  | GI50 (Trypanosoma cruzi [1]): inactive; growth inhibition (GI) (Trypanosoma cruzi [2]): inactive |
| O=S(=O)(NCc1cc(-c2ccccc2)no1)c1ccc(Cl)cc1 | > 50 | 16.6 |  |  | 17.2 | > 100 | 17.8 |  |
| O=[N+]([O-])c1ccc(-c2cc(CNS(=O)(=O)c3ccc(F)cc3)on2)cc1 | > 50 | 7.8 | Not Active | inactive | 15.7 |  |  |  |
| O=[N+]([O-])c1ccc(S(=O)(=O)NCc2cc(-c3ccc4c(c3)OCO4)no2)cc1 | 11.6 | 86.3 |  |  | 43.4 | > 100 | 25.3 | CC50 [9]: 339 µM; CC50 at 48 h [10]: 387 µM; selectivity ratio [7]: 29.1; CC50 at 48 h [11]: > 500 µM; CC50 at 48 h [12]: 284 µM |
| Cc1ccc(S(=O)(=O)NCc2cc(-c3ccc4c(c3)OCO4)no2)cc1 |  |  |  |  | 11.4 | > 100 | 19.1 | CC50 [9]: > 500 µM; CC50 at 48 h [10]: > 500 µM; GI50 (Trypanosoma cruzi [1]): inactive; CC50 at 48 h [11]: 437 µM; growth inhibition (GI) (Trypanosoma cruzi [2]): inactive; CC50 at 48 h [12]: 358 µM |
| COc1ccc(-c2cc(CNS(=O)(=O)c3ccc(Cl)cc3)on2)cc1OC | > 50 | 27.4 |  |  |  | > 100 | 2 | growth inhibition (GI) (Leishmania amazonensis [5]): inactive |
| O=S(=O)(NCc1cc(-c2ccc3c(c2)OCO3)no1)c1ccc(F)cc1 |  |  |  |  | 12.8 | 173 | 70.1 | GI50 (Trypanosoma cruzi [1]): inactive; selectivity ratio [6]: > 2.9; growth inhibition (GI) (Trypanosoma cruzi [2]): inactive |
| O=S(=O)(NCc1cc(-c2ccccc2)no1)c1ccc(F)cc1 |  |  |  |  | 13.2 | > 100 | 40.2 | GI50 (Trypanosoma cruzi [1]): inactive; growth inhibition (GI) (Trypanosoma cruzi [2]): inactive |
| O=[N+]([O-])c1ccc(-c2cc(CNS(=O)(=O)c3ccc([N+](=O)[O-])cc3)on2)cc1 | 38.6 | 76.2 | Not Active | inactive | 25.2 |  |  | selectivity ratio [7]: > 12.9 |
| O=[N+]([O-])c1ccc(S(=O)(=O)NCc2cc(-c3ccccc3)no2)cc1 | > 50 | 34 |  |  | 18.4 | > 100 | 10.4 |  |
| COc1ccc(-c2cc(CNS(=O)(=O)c3ccc(F)cc3)on2)cc1OC | 42.4 | 72.8 |  |  | 6.6 | > 100 | 22.8 | CC50 [9]: 300 µM; CC50 at 48 h [10]: 397 µM; selectivity ratio [7]: 7.1; CC50 at 48 h [11]: 374 µM; CC50 at 48 h [12]: 327 µM |
